{"source": "ChEMBL document CHEMBL5729103", "about": "“Thienopyrazine carboxamides as ubiquitin-specific protease inhibitors” (2022)", "target": "T1, Ubiquitin carboxyl-terminal hydrolase 28 (Homo sapiens, UniProt Q96RU2)", "T1 sequence (Q96RU2 whole entry)": "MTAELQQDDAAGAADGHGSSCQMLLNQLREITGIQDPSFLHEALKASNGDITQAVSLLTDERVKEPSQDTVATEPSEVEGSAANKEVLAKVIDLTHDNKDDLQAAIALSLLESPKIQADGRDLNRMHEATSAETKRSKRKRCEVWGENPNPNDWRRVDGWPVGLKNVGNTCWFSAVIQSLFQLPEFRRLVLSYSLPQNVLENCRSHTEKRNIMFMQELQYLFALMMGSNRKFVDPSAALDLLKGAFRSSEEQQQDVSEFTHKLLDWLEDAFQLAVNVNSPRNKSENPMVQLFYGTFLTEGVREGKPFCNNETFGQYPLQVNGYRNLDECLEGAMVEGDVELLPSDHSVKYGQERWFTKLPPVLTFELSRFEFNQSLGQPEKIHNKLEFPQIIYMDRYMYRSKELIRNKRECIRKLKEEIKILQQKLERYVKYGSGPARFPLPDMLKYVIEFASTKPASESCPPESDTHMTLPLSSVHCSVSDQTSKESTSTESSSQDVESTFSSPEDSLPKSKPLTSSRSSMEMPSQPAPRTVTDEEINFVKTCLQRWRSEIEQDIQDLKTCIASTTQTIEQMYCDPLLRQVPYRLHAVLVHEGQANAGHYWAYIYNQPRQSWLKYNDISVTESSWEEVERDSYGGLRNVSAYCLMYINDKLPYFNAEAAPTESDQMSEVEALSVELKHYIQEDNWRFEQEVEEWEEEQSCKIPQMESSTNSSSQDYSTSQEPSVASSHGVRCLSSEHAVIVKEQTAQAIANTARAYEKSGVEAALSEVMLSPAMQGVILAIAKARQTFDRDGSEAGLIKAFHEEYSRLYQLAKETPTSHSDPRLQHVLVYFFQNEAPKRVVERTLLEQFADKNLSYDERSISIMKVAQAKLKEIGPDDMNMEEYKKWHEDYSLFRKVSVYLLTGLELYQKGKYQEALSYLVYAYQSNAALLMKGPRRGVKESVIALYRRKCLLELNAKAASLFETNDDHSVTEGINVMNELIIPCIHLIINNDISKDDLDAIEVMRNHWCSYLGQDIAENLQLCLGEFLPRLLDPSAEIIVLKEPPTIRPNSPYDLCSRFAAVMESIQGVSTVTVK", "experiment": "Biochemical Assay: Ubiquitin-Rhodamine 110 Assay for USP28 Activity: Each assay was performed in a final volume of 20 μL in assay buffer containing 20 mM Tris-HCl (pH 8.0, (1M Tris-HCl, pH 8.0 solution; Corning 46-031-CM)), 2 mM CaCl2 (1M Calcium Chloride solution; Sigma #21114) 2 mM BME (2-Mercaptoethanol; Sigma 63689-25ML-F), 0.01% Prionex (0.22 μM filtered, Sigma #G-0411), and 0.01% Triton X-100. Stock compound solutions were stored at −20° C. as 10 mM in DMSO. Up to 1 month prior to the assay, 2 mM test compounds were pre-dispensed into assay plates (Black, low volume; Corning #3820) and frozen at −20° C. Prestamped assay plates were allowed to come to room temperature on the day of the assay. For the screen, 100 nL of 2 mM was pre-dispensed for a final screening concentration of 10 μM (DMSO(fc)=0.5%). […]", "data": [{"compound": "Cc1cnc2c(N)c(C(=O)NCCc3ccc(N4CC5CCC(C4)N5)cc3)sc2n1", "values": [{"measurement": "IC50", "value": "< 200", "unit": "nM"}]}]}
